Results from ChEMBL document CHEMBL1146949, “Isoquinoline derivatives as potential acetylcholinesterase inhibitors” (Bioorg Med Chem Lett, 2006).

Key:
Acetylcholinesterase [1] = target: T1, Acetylcholinesterase (Homo sapiens, UniProt P22303); assay: Inhibition of AChE activity
Acetylcholinesterase [2] = target: T1, Acetylcholinesterase; assay: Inhibition of AChE at 0.03 mM
Acetylcholinesterase [3] = target: T1, Acetylcholinesterase; assay: Inhibition of AChE at 0.3 mM

T1 sequence (P22303 whole entry): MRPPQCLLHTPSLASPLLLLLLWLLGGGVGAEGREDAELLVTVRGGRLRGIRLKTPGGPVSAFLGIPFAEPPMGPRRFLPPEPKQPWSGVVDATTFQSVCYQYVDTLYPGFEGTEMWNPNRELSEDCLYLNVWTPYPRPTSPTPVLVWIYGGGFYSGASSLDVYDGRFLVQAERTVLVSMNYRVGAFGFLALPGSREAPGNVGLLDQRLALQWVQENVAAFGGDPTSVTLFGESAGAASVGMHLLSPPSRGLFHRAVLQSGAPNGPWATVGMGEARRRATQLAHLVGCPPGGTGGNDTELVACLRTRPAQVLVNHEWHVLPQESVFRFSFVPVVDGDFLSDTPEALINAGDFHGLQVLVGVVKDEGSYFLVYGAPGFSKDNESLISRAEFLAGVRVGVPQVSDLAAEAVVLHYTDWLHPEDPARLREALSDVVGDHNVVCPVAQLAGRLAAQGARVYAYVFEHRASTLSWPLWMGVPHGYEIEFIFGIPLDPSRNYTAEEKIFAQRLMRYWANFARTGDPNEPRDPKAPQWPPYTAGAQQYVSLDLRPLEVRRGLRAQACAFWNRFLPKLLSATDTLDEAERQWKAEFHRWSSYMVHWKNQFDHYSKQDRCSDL

Row | SMILES | IC50 (Acetylcholinesterase [1]) [µM] | inhibition (Acetylcholinesterase [2]) [%] | inhibition (Acetylcholinesterase [3]) [%] | inhibition (Acetylcholinesterase [1]; concentration not given here) [%]
1 | COc1ccc(Cc2nccc3cc(OC)c(OC)cc23)cc1OC [PAPAVERINE] | 24.3 |  |  | 
2 | COC(=O)N1CCc2c(OC)c(OC)c(OC)c3c2C1Cc1cc(OC)c(OC)cc1-3 (stereo unspecified) |  | 7.3 | 15.9 | 
3 | COc1ccc(C(O)c2nccc3cc(OC)c(OC)cc23)cc1OC (stereo unspecified) | 10.7 |  |  | 
4 | COc1cc2ccnc(C(O)c3ccccc3OC)c2cc1OC (stereo unspecified) | 6.94 |  |  | 0
